Source: PMC11775015, “Parishin B blocking TRIB3-AKT1 interaction inhibits breast cancer lung metastasis” (Frontiers in Pharmacology, 2025)

Biological target: T1, TRIB3 (Tribbles homolog 3) (Homo sapiens, UniProt Q96RU7)
T1 construct: endogenous untagged full-length protein in RIPA lysate of MDA-MB-231 cells, detected by Western blot (anti-TRIB3 Abcam ab75846); NP_066981.2 printed for the homology model
T1 sequence (Q96RU7 1-358): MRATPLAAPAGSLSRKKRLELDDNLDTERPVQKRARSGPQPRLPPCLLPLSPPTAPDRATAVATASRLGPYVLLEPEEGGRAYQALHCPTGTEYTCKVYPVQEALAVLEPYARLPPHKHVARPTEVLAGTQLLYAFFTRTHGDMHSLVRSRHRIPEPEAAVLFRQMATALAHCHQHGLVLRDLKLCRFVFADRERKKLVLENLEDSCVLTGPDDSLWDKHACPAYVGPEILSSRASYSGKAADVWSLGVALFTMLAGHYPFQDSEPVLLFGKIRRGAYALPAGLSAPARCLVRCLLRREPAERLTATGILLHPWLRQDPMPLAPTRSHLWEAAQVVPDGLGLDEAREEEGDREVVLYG
Assay: CETSA (cell lysate, Western blot)
Format: biochemical
Settings: 10 uM PB, 1 h, MDA-MB-231 RIPA lysate; 35-60 C for 10 min

O=C(O)CC(O)(CC(=O)OCc1ccc(O[C@@H]2O[C@H](CO)[C@@H](O)[C@H](O)[C@H]2O)cc1)C(=O)OCc1ccc(O[C@@H]2O[C@H](CO)[C@@H](O)[C@H](O)[C@H]2O)cc1 (stereo partly shown) [PB, Parishin B]
CETSA (cell lysate, Western blot): PB enhances the thermal stability of TRIB3, resulting in improved thermal stabilization of TRIB3
